Source: patent US10493030B2 (priority 2015, dated 2019)

Columns and labels:
HIV-1 = settings: low concentrations; cited from earlier work
classical PKCs pathways = assay: cPKC translocation and signalling pathway activation in T cells; assay type: cell-based
Excerpt: Low concentrations of Bryostatin-1 activate the cPKC-Ras-Raf-ERK pathway and synergize with an HDAC inhibitor, valproic acid (VPA), to activate the transcription factor SP1.

[1] = tested on: human HIV-1 receptors CD4 and CXCR4; settings: low concentrations; cited from earlier work
transcription factor SP1 = assay: activation of transcription factor SP1, combination with valproic acid; assay type: cell-based; settings: low concentrations; with HDAC inhibitor valproic acid
Jurkat-LAT-GFP = assay: in vitro model of HIV-1 latency, Jurkat-LAT-GFP; assay type: cell-based
[2] = Phase I clinical study in HIV-1 patients (NCT02269605); assay type: in vivo, human; settings: doses of 10 and 20 μg/m2
T cells = assay: transcriptome studies in T cells; assay type: cell-based; settings: 10 and 100 nM
HIV-1 latency = settings: very low concentrations (1-10 nM); in vitro; cited from earlier work
[3] = tested on: PBMC isolated from HIV-1 patients; assay: HIV-1 latency ex vivo in PBMC isolated from HIV-1 patients; assay type: cell-based, human
HIV = settings: some HIV-infected patients; cited from earlier work
[4] = concentrations higher than 10 nM

| SMILES | de novo HIV-1 infection (HIV-1) | activation of NF-κB and MAPKs (JNK and ERK) pathways (classical PKCs pathways; [4]) | translocation of cPKCs (classical PKCs pathways; [4]) | translocation of cPKCs and Ras-GRP1 (classical PKCs pathways; lower concentrations (10 nM)) | expression of the human HIV-1 receptors CD4 and CXCR4 [1] | synergy with valproic acid (VPA) to activate the transcription factor SP1 (transcription factor SP1) | reactivation of HIV-1 latency in T cells (Jurkat-LAT-GFP; Jurkat-LAT-GFP, via classical PKCs pathways) | reactivation of HIV-1 latency (Jurkat-LAT-GFP; lower concentrations (10 nM), ERK activation and nuclear phosphorylation of p65) | adverse events [2] | gene expression in T cells, low vs. high concentrations (T cells) | synergy with HDAC inhibitors such as valproic acid to antagonise HIV-1 latency (HIV-1 latency) | HIV-1 latency ex vivo [3] | HIV transcription from latency (HIV) |
| --- | --- | --- | --- | --- | --- | --- | --- | --- | --- | --- | --- | --- | --- |
| CCC/C=C/C=C/C(=O)O[C@H]1/C(=C/C(=O)OC)C[C@H]2C[C@H]([C@@H](C)O)OC(=O)C[C@H](O)C[C@@H]3C[C@H](OC(C)=O)C(C)(C)[C@](O)(C[C@@H]4C/C(=C/C(=O)OC)C[C@H](/C=C/C(C)(C)[C@]1(O)O2)O4)O3 [Bryostatin-1] | prevent de novo HIV-1 infection | activated the canonical NF-κB and MAPKs (JNK and ERK) pathways | induced translocation of cPKCs to the plasma membrane | translocated cPKCs and Ras-GRP1 to the endoplasmic reticulum | down-regulated | synergize | re-activates HIV-1 latency | fully reactivates HIV-1 latency | did not induced significant adverse events | differentially regulate gene expression | synergizes | antagonized HIV-1 latency | – |
| O=C(CCCCCCC(=O)Nc1ccccc1)NO [Vorinostat] | – | – | – | – | – | – | – | – | – | – | – | – | significant and sustained increase in HIV transcription from latency |
